This passage reports EC50 results from US5677419A, “Cyclic vasoactive peptide analogs” (Hoffmann-La Roche Inc., priority 1994, dated 1997).

In the test the test system is guinea pig tracheal smooth muscle. Kind of test: Tracheal relaxant activity of VIP analogs on isolated guinea pig tracheal rings. As to conditions: cumulative concentration response, relaxation as % of maximum response to VIP (10^-6 M=100%), three tissues pooled, linear regression. It counts as cell-based. The procedure: The relaxant activity of the VIP analogs were studied in a model utilizing guinea pig trachea. [Wasserman, M. A. et al., in Vasoactive Intestinal Peptide, S. I. Said, ed., Raven Press, New York 1982, pp 177-184] All tissues were taken from male albino guinea pig weighing 400-600 g, anesthetized with urethane (2 g/kg, i.p.). After exanguination, the trachea were removed and divided into four ring segments (3 mm length). Each ring was suspended by 30 gauge stainless steel wires in a 10 mL jacketed tissue bath and attached via 4-0 silk thread to a GRASS force displacement transducer (model FT03C, Grass Instruments Co., Quincy, Mass.), for isometric recording of tension. The smooth muscle was bathed in modified Krebs solution of the following composition: NaCl, 120 mM; KCl, 4.7 mM; CaCl2, 2.5 mM; MgSO4.7H2 O, 1.2 mM; NaHCO3, 25 mM; K2 HPO4 monobasic, 1.2 mM; and dextrose, 10 mM. Tissue baths were maintained at 37° C. and constantly bubbled with 95% O2 and 5% CO2. Responses were recorded on an 8 channel and a 4 channel HEWLETT-PACKARD (model 7702B and 7754A, respectively) recorder (Hewlett- Packard, Paramus, N.J.). Tracheal rings were placed under a resting tension of 1.5 g which was determined to be at or near optimal in preliminary experiments. Frequent readjustments of tension were required during the 60 minute stabilization period which followed. Tissues were rinsed at 15 minute intervals.
Cumulative concentration response curves were obtained for each tissue by successive […] increases in the bath concentration of VIP or VIP analogs according to the method of VanRossum [Arch. Int. Pharmacodyn., 143, 299-330 (1963)]. Only one cumulative dose response curve was obtained on a single tissue. To minimize variability between tissues, relaxant responses were expressed as a percentage of the maximum response obtained to VIP (10^-6 M=100%) added at the end of each concentration response experiment. Responses obtained from three tissues were pooled and EC50 values were determined by linear regression.
The results summarized in Table I show the tracheal relaxant activity of the VIP analogs in comparison to native VIP.

Where a SMILES comes first, the peptide text is derived from it. Bridges are numbered along the chain shown (N, C = ends). [ ]: non-standard residue; d: D form. Nle = CCCC[C@H](N)C(=O)O; Orn = NCCC[C@H](N)C(=O)O

As usually defined, the EC50 is the midpoint of the concentration-response curve. A lower EC50 goes with higher potency in that assay. On to `CCCC[C@H](NC(=O)[C@H](CCC(N)=O)NC(=O)[C@H](CCCCN)NC(=O)[C@H](CCCNC(=N)N)NC(=O)[C@H](CC(C)C)NC(=O)[C@@H]1CCCCNC(=O)C[C@H](NC(=O)[C@@H](NC(=O)[C@H](Cc2ccccc2)NC(=O)[C@@H](NC(=O)[C@H](C)NC(=O)[C@H](CC(=O)O)NC(=O)[C@H](CO)NC(=O)[C@H](Cc2c[nH]cn2)NC(C)=O)C(C)C)[C@@H](C)O)C(=O)N[C@@H](CC(N)=O)C(=O)N[C@@H](Cc2ccc(O)cc2)C(=O)N[C@@H]([C@@H](C)O)C(=O)N1)C(=O)N[C@@H](C)C(=O)N[C@H](C(=O)N[C@@H](CCCCN)C(=O)N[C@@H](CCCCN)C(=O)N[C@@H](Cc1ccc(O)cc1)C(=O)N[C@@H](CC(C)C)C(=O)N[C@@H](CC(N)=O)C(=O)N[C@@H](CO)C(=O)N[C@H](C(=O)N[C@@H](CC(C)C)C(=O)N[C@H](C(N)=O)[C@@H](C)O)C(C)C)C(C)C` [SEQ ID NO:20, Ac-[Lys^12,Nle^17,Val^26,Thr^28]-VIP cyclo (Asp^8 →Lys^12)] (Ac-HSDAVFTDNYTKLRKQ[Nle]AVKKYLNSVLT-NH2; lactam 8-12), for which the concentration for a half-maximal effect (EC50) was 14 nM.

For `CCCC[C@H](NC(=O)[C@H](CCC(N)=O)NC(=O)[C@H](CCCCN)NC(=O)[C@H](CCCNC(=N)N)NC(=O)[C@H](CC(C)C)NC(=O)[C@@H]1CCCCNC(=O)CC[C@H](NC(=O)[C@@H](NC(=O)[C@H](Cc2ccccc2)NC(=O)[C@@H](NC(=O)[C@H](C)NC(=O)[C@H](CC(=O)O)NC(=O)[C@H](CO)NC(=O)[C@H](Cc2c[nH]cn2)NC(C)=O)C(C)C)[C@@H](C)O)C(=O)N[C@@H](CC(N)=O)C(=O)N[C@@H](Cc2ccc(O)cc2)C(=O)N[C@@H]([C@@H](C)O)C(=O)N1)C(=O)N[C@@H](C)C(=O)N[C@H](C(=O)N[C@@H](CCCCN)C(=O)N[C@@H](CCCCN)C(=O)N[C@@H](Cc1ccc(O)cc1)C(=O)N[C@@H](CC(C)C)C(=O)N[C@@H](CC(N)=O)C(=O)N[C@@H](CO)C(=O)N[C@H](C(=O)N[C@@H](CC(C)C)C(=O)N[C@H](C(N)=O)[C@@H](C)O)C(C)C)C(C)C` [SEQ ID NO:21, Ac-[Glu^8,Lys^12,Nle^17,Val^26,Thr^28]-VIP cyclo (Glu^8 →Lys^12)] (Ac-HSDAVFTENYTKLRKQ[Nle]AVKKYLNSVLT-NH2; lactam 8-12), the EC50 amounted to 34 nM.

Turning to `CCCC[C@H](NC(=O)[C@H](CCC(N)=O)NC(=O)[C@H](CCCCN)NC(=O)[C@H](CCCNC(=N)N)NC(=O)[C@H](CC(C)C)NC(=O)[C@@H]1CCCCNC(=O)C[C@H](NC(=O)[C@H](CC(N)=O)NC(=O)[C@@H](NC(=O)[C@H](Cc2ccccc2)NC(=O)[C@@H](NC(=O)[C@H](C)NC(=O)[C@H](CC(=O)O)NC(=O)[C@H](CO)NC(=O)[C@H](Cc2c[nH]cn2)NC(C)=O)C(C)C)[C@@H](C)O)C(=O)N[C@@H](Cc2ccc(O)cc2)C(=O)N[C@@H]([C@@H](C)O)C(=O)N1)C(=O)N[C@@H](C)C(=O)N[C@H](C(=O)N[C@@H](CCCCN)C(=O)N[C@@H](CCCCN)C(=O)N[C@@H](Cc1ccc(O)cc1)C(=O)N[C@@H](CC(C)C)C(=O)N[C@@H](CC(N)=O)C(=O)N[C@@H](CO)C(=O)N[C@H](C(=O)N[C@@H](CC(C)C)C(=O)N[C@H](C(N)=O)[C@@H](C)O)C(C)C)C(C)C` [SEQ ID NO:22, Ac-[Asn^8,Asp^9,Lys^12,Nle^17,Val^26,Thr^28]-VIP cyclo (Asp^9 →Lys^12)] (Ac-HSDAVFTNDYTKLRKQ[Nle]AVKKYLNSVLT-NH2; lactam 9-12), a half-maximal effect (EC50) was put at 17 nM.

`CCCC[C@H](NC(=O)[C@H](CCC(N)=O)NC(=O)[C@H](CCCCN)NC(=O)[C@H](CCCNC(=N)N)NC(=O)[C@H](CC(C)C)NC(=O)[C@@H]1CCCNC(=O)C[C@H](NC(=O)[C@@H](NC(=O)[C@H](Cc2ccccc2)NC(=O)[C@@H](NC(=O)[C@H](C)NC(=O)[C@H](CC(=O)O)NC(=O)[C@H](CO)NC(=O)[C@H](Cc2c[nH]cn2)NC(C)=O)C(C)C)[C@@H](C)O)C(=O)N[C@@H](CC(N)=O)C(=O)N[C@@H](Cc2ccc(O)cc2)C(=O)N[C@@H]([C@@H](C)O)C(=O)N1)C(=O)N[C@@H](C)C(=O)N[C@H](C(=O)N[C@@H](CCCCN)C(=O)N[C@@H](CCCCN)C(=O)N[C@@H](Cc1ccc(O)cc1)C(=O)N[C@@H](CC(C)C)C(=O)N[C@@H](CC(N)=O)C(=O)N[C@@H](CO)C(=O)N[C@H](C(=O)N[C@@H](CC(C)C)C(=O)N[C@H](C(N)=O)[C@@H](C)O)C(C)C)C(C)C` [SEQ ID NO:23, Ac-[Orn^12,Nle^17,Val^26,Thr^28]-VIP cyclo (Asp^8 →Orn^12)] (Ac-HSDAVFTDNYT[Orn]LRKQ[Nle]AVKKYLNSVLT-NH2; lactam 8-12) showed a concentration for a half-maximal effect (EC50) of 40 nM. Against the preceding compound, the EC50 is about 2.4-fold higher.

Turning to `CCCC[C@H](NC(=O)[C@H](CCC(N)=O)NC(=O)[C@H](CCCCN)NC(=O)[C@H](CCCNC(=N)N)NC(=O)[C@H](CC(C)C)NC(=O)[C@@H]1CC(=O)NCCCC[C@H](NC(=O)[C@@H](NC(=O)[C@H](Cc2ccccc2)NC(=O)[C@@H](NC(=O)[C@H](C)NC(=O)[C@H](CC(=O)O)NC(=O)[C@H](CO)NC(=O)[C@H](Cc2c[nH]cn2)NC(C)=O)C(C)C)[C@@H](C)O)C(=O)N[C@@H](CC(N)=O)C(=O)N[C@@H](Cc2ccc(O)cc2)C(=O)N[C@@H]([C@@H](C)O)C(=O)N1)C(=O)N[C@@H](C)C(=O)N[C@H](C(=O)N[C@@H](CCCCN)C(=O)N[C@@H](CCCCN)C(=O)N[C@@H](Cc1ccc(O)cc1)C(=O)N[C@@H](CC(C)C)C(=O)N[C@@H](CC(N)=O)C(=O)N[C@@H](CO)C(=O)N[C@H](C(=O)N[C@@H](CC(C)C)C(=O)N[C@H](C(N)=O)[C@@H](C)O)C(C)C)C(C)C` [SEQ ID NO:24, Ac-[Lys^8,Asp^12,Nle^17,Val^26,Thr^28]-VIP cyclo (Lys^8 →Asp^12)] (Ac-HSDAVFTKNYTDLRKQ[Nle]AVKKYLNSVLT-NH2; lactam 8-12), a half-maximal response (EC50) required 38 nM. This EC50 and that of the compound before are within 1.5-fold of each other.

`CCCC[C@H](NC(=O)[C@H](CCC(N)=O)NC(=O)[C@H](CCCCN)NC(=O)[C@H](CCCNC(=N)N)NC(=O)[C@H](CC(C)C)NC(=O)[C@@H]1CCCNC(=O)CC[C@H](NC(=O)[C@@H](NC(=O)[C@H](Cc2ccccc2)NC(=O)[C@@H](NC(=O)[C@H](C)NC(=O)[C@H](CC(=O)O)NC(=O)[C@H](CO)NC(=O)[C@H](Cc2c[nH]cn2)NC(C)=O)C(C)C)[C@@H](C)O)C(=O)N[C@@H](CC(N)=O)C(=O)N[C@@H](Cc2ccc(O)cc2)C(=O)N[C@@H]([C@@H](C)O)C(=O)N1)C(=O)N[C@@H](C)C(=O)N[C@H](C(=O)N[C@@H](CCCCN)C(=O)N[C@@H](CCCCN)C(=O)N[C@@H](Cc1ccc(O)cc1)C(=O)N[C@@H](CC(C)C)C(=O)N[C@@H](CC(N)=O)C(=O)N[C@@H](CO)C(=O)N[C@H](C(=O)N[C@@H](CC(C)C)C(=O)N[C@H](C(N)=O)[C@@H](C)O)C(C)C)C(C)C` [SEQ ID NO:25, Ac-[Glu^8,Orn^12,Nle^17,Val^26,Thr^28]-VIP cyclo (Glu^8 →Orn^12)] (Ac-HSDAVFTENYT[Orn]LRKQ[Nle]AVKKYLNSVLT-NH2; lactam 8-12) came in with an EC50 of 16 nM.
